Oligonucleotides are written 5' to 3', each unit as a sugar letter and its base; * is a phosphorothioate linkage, no mark a phosphodiester; rarer units and linkages stand in square brackets, end groups in braces. Plain capitals give the bases only. d = 2'-deoxy (DNA); r = 2'-OH (RNA)

Data on 19 substances can be found in the OligoGym collection.
Further: test concentration or dose not given here.

The target of this data set is UBE2T. In words: reporter assay of Huesken 2005. As to conditions: siRNA.
As to “sense rCrCrArArArArGrGrUrGrCrUrUrGrGrArGrArCdTdT / antisense rGrUrCrUrCrCrArArGrCrArCrCrUrUrUrUrGrGdTdG”, the normalised inhibition (eCFP-eYFP dual reporter) is 84.9%.
Next, “sense rCrCrArArArUrGrGrArUrGrArCrCrUrGrCrGrAdTdT / antisense rUrCrGrCrArGrGrUrCrArUrCrCrArUrUrUrGrGdTdC”: 95.3%; “sense rCrCrArArUrUrUrArUrCrArUrCrCrArArArCrAdTdT / antisense rUrGrUrUrUrGrGrArUrGrArUrArArArUrUrGrGdAdG”: 101%.
Take “sense rCrCrCrUrCrArArCrArUrCrGrCrArArCrUrGrUdTdT / antisense rArCrArGrUrUrGrCrGrArUrGrUrUrGrArGrGrGdAdT”: the normalised inhibition (eCFP-eYFP dual reporter) was 106%.
Next, “sense rCrCrCrUrGrArUrGrArCrCrCrGrCrUrCrArUrGdTdT / antisense rCrArUrGrArGrCrGrGrGrUrCrArUrCrArGrGrGdTdT”: 91.2%.
Then “sense rCrCrUrGrArGrArGrGrUrArCrCrCrArUrUrUrGdTdT / antisense rCrArArArUrGrGrGrUrArCrCrUrCrUrCrArGrGdAdA”, with 78.5%.
Consider “sense rCrCrUrGrArUrGrArCrCrCrGrCrUrCrArUrGrGdTdT / antisense rCrCrArUrGrArGrCrGrGrGrUrCrArUrCrArGrGdGdT”, for which the normalised inhibition (eCFP-eYFP dual reporter) was 83.5%.
Next, “sense rCrCrUrGrCrGrArGrCrUrCrArArArUrArUrUrAdTdT / antisense rUrArArUrArUrUrUrGrArGrCrUrCrGrCrArGrGdTdC”: 102%.
Then “sense rCrGrArGrCrUrCrArArArUrArUrUrArGrGrUrGdTdT / antisense rCrArCrCrUrArArUrArUrUrUrGrArGrCrUrCrGdCdA”, with 90%; and “sense rCrGrArUrUrUrCrUrCrArCrUrCrCrArArUrUrUdTdT / antisense rArArArUrUrGrGrArGrUrGrArGrArArArUrCrGdGdA”, with 107%; and “sense rCrUrCrArArArUrUrGrCrCrArCrCrArArArArGdTdT / antisense rCrUrUrUrUrGrGrUrGrGrCrArArUrUrUrGrArGdAdA”, with 68.5%.
Then “sense rCrUrCrArGrArArUrUrUrArArArUrArUrArArUdTdT / antisense rArUrUrArUrArUrUrUrArArArUrUrCrUrGrArGdGdA”, with 85.9%; and “sense rCrUrCrCrArArUrUrUrArUrCrArUrCrCrArArAdTdT / antisense rUrUrUrGrGrArUrGrArUrArArArUrUrGrGrArGdTdG”, with 107%; and “sense rCrUrGrCrUrCrArUrGrUrCrArGrArArCrCrCrAdTdT / antisense rUrGrGrGrUrUrCrUrGrArCrArUrGrArGrCrArGdCdT”, with 104%.
Turning to “sense rCrUrUrArUrGrArGrArArArGrGrUrGrUrUrUrUdTdT / antisense rArArArArCrArCrCrUrUrUrCrUrCrArUrArArGdGdT”, the normalised inhibition (eCFP-eYFP dual reporter) is 92.5%.
Then “sense rCrUrUrCrCrUrCrArArGrArArUrGrCrCrArGrAdTdT / antisense rUrCrUrGrGrCrArUrUrCrUrUrGrArGrGrArArGdGdC”, with 76%; and “sense rGrArArGrArGrArUrGrCrUrUrGrArUrArArUrCdTdT / antisense rGrArUrUrArUrCrArArGrCrArUrCrUrCrUrUrCdCdT”, with 85.9%.
Regarding “sense rGrArArGrCrArUrGrCrArArGrArCrArGrArArAdTdT / antisense rUrUrUrCrUrGrUrCrUrUrGrCrArUrGrCrUrUrCdTdC”, the normalised inhibition (eCFP-eYFP dual reporter) came out at 97.1%.
With “sense rGrArArGrGrCrCrArGrUrCrArGrCrUrArGrUrAdTdT / antisense rUrArCrUrArGrCrUrGrArCrUrGrGrCrCrUrUrCdCdT”, the normalised inhibition (eCFP-eYFP dual reporter) stood at 91.9%.
